# How the values were obtained:
# Assay type in all cases: in vivo
# Details in all cases: 250 g/ha, evaluated after 13 days, 100=total damage to plant, 0=no damage to plant
# [1] = test system: Amaranthus palmeri (AMAPA); experiment: Pre-emergence biological efficacy, AMAPA
# Protocol: (§1) Seeds of weeds and/or crops were sown in standard soil in pots (Amaranthus palmeri (AMAPA), Lolium perenne (LOLPE), Euphorbia heterophylla (EPHHL), Setaria faberi (SETFA), Echinochloa crus-galli (ECHCG), Ipomoea hederacea (IPOHE)). After cultivation for one day under controlled conditions in a glasshouse (at 24/19° C., day/night; 16 hours light), the plants were sprayed with an aqueous spray solution derived from the formulation of the technical active ingredient in a small amount of acetone and a special solvent and emulsifier mixture referred to as IF50 (11.12% Emulsogen EL360 TM+44.44% N-methylpyrrolidone+44.44% Dowanol DPM glycol ether), to create a 50 g/l solution which was then diluted using 0.2% Genapol X080 as diluent to give the desired final dose of test compound. Compounds were applied at a 250 g/ha unless otherwise stated. The test plants were then grown under controlled conditions in the glasshouse (at 24/18° C., day/night; 15 hours light; 50% humidity) and watered twice daily. After 13 days the test was evaluated (100=total damage to plant; 0=no damage to plant).
# Lolium perenne (LOLPE) [2] = experiment: Pre-emergence biological efficacy, LOLPE
# Protocol: as §1
# [3] = test system: Euphorbia heterophylla (EPHHL); experiment: Pre-emergence biological efficacy, EPHHL
# Protocol: as §1
# Setaria faberi (SETFA) [4] = experiment: Pre-emergence biological efficacy, SETFA
# Protocol: as §1
# [5] = test system: Echinochloa crus-galli (ECHCG); experiment: Pre-emergence biological efficacy, ECHCG
# Protocol: as §1
# [6] = test system: Ipomoea hederacea (IPOHE); experiment: Pre-emergence biological efficacy, IPOHE
# Protocol: as §1
# [7] = test system: Amaranthus palmeri (AMAPA); experiment: Post-emergence biological efficacy, AMAPA
# Protocol: as §1, with “(AMAPA), (CHEAL), Euphorbia heterophylla (EPHHL), Ipomoea hederacea (IPOHE), Eleusine indica (ELEIN),” for “(AMAPA),”, “Digitaria sanguinalis (DIGSA),” for “Euphorbia heterophylla (EPHHL),”, “(ECHCG)).” for “(ECHCG), Ipomoea hederacea (IPOHE)).”, “14 days” for “one day”, “XO80” for “X080”
# CHEAL = experiment: Post-emergence biological efficacy, CHEAL
# Protocol: as §1, with “(AMAPA), (CHEAL), Euphorbia heterophylla (EPHHL), Ipomoea hederacea (IPOHE), Eleusine indica (ELEIN),” for “(AMAPA),”, “Digitaria sanguinalis (DIGSA),” for “Euphorbia heterophylla (EPHHL),”, “(ECHCG)).” for “(ECHCG), Ipomoea hederacea (IPOHE)).”, “14 days” for “one day”, “XO80” for “X080”
# [8] = test system: Euphorbia heterophylla (EPHHL); experiment: Post-emergence biological efficacy, EPHHL
# Protocol: as §1, with “(AMAPA), (CHEAL), Euphorbia heterophylla (EPHHL), Ipomoea hederacea (IPOHE), Eleusine indica (ELEIN),” for “(AMAPA),”, “Digitaria sanguinalis (DIGSA),” for “Euphorbia heterophylla (EPHHL),”, “(ECHCG)).” for “(ECHCG), Ipomoea hederacea (IPOHE)).”, “14 days” for “one day”, “XO80” for “X080”
# [9] = test system: Ipomoea hederacea (IPOHE); experiment: Post-emergence biological efficacy, IPOHE
# Protocol: as §1, with “(AMAPA), (CHEAL), Euphorbia heterophylla (EPHHL), Ipomoea hederacea (IPOHE), Eleusine indica (ELEIN),” for “(AMAPA),”, “Digitaria sanguinalis (DIGSA),” for “Euphorbia heterophylla (EPHHL),”, “(ECHCG)).” for “(ECHCG), Ipomoea hederacea (IPOHE)).”, “14 days” for “one day”, “XO80” for “X080”
# Eleusine indica (ELEIN) = experiment: Post-emergence biological efficacy, ELEIN
# Protocol: as §1, with “(AMAPA), (CHEAL), Euphorbia heterophylla (EPHHL), Ipomoea hederacea (IPOHE), Eleusine indica (ELEIN),” for “(AMAPA),”, “Digitaria sanguinalis (DIGSA),” for “Euphorbia heterophylla (EPHHL),”, “(ECHCG)).” for “(ECHCG), Ipomoea hederacea (IPOHE)).”, “14 days” for “one day”, “XO80” for “X080”
# Lolium perenne (LOLPE) [10] = experiment: Post-emergence biological efficacy, LOLPE
# Protocol: as §1, with “(AMAPA), (CHEAL), Euphorbia heterophylla (EPHHL), Ipomoea hederacea (IPOHE), Eleusine indica (ELEIN),” for “(AMAPA),”, “Digitaria sanguinalis (DIGSA),” for “Euphorbia heterophylla (EPHHL),”, “(ECHCG)).” for “(ECHCG), Ipomoea hederacea (IPOHE)).”, “14 days” for “one day”, “XO80” for “X080”
# [11] = test system: Digitaria sanguinalis (DIGSA); experiment: Post-emergence biological efficacy, DIGSA
# Protocol: as §1, with “(AMAPA), (CHEAL), Euphorbia heterophylla (EPHHL), Ipomoea hederacea (IPOHE), Eleusine indica (ELEIN),” for “(AMAPA),”, “Digitaria sanguinalis (DIGSA),” for “Euphorbia heterophylla (EPHHL),”, “(ECHCG)).” for “(ECHCG), Ipomoea hederacea (IPOHE)).”, “14 days” for “one day”, “XO80” for “X080”
# Setaria faberi (SETFA) [12] = experiment: Post-emergence biological efficacy, SETFA
# Protocol: as §1, with “(AMAPA), (CHEAL), Euphorbia heterophylla (EPHHL), Ipomoea hederacea (IPOHE), Eleusine indica (ELEIN),” for “(AMAPA),”, “Digitaria sanguinalis (DIGSA),” for “Euphorbia heterophylla (EPHHL),”, “(ECHCG)).” for “(ECHCG), Ipomoea hederacea (IPOHE)).”, “14 days” for “one day”, “XO80” for “X080”
# [13] = test system: Echinochloa crus-galli (ECHCG); experiment: Post-emergence biological efficacy, ECHCG
# Protocol: as §1, with “(AMAPA), (CHEAL), Euphorbia heterophylla (EPHHL), Ipomoea hederacea (IPOHE), Eleusine indica (ELEIN),” for “(AMAPA),”, “Digitaria sanguinalis (DIGSA),” for “Euphorbia heterophylla (EPHHL),”, “(ECHCG)).” for “(ECHCG), Ipomoea hederacea (IPOHE)).”, “14 days” for “one day”, “XO80” for “X080”
Compound,"damage to plant, AMAPA [1]","damage to plant, LOLPE (Lolium perenne (LOLPE) [2])","damage to plant, EPHHL [3]","damage to plant, SETFA (Setaria faberi (SETFA) [4])","damage to plant, ECHCG [5]","damage to plant, IPOHE [6]","damage to plant, AMAPA [7]","damage to plant, CHEAL (CHEAL)","damage to plant, EPHHL [8]","damage to plant, IPOHE [9]","damage to plant, ELEIN (Eleusine indica (ELEIN))","damage to plant, LOLPE (Lolium perenne (LOLPE) [10])","damage to plant, DIGSA [11]","damage to plant, SETFA (Setaria faberi (SETFA) [12])","damage to plant, ECHCG [13]"
"CCOC(=O)C[C@H](C)OC(=O)c1cc(-c2ncc(C(F)(F)F)cc2Cl)ccc1Cl [Compound 1-525 (S-enantiomer), [(1S)-3-ethoxy-1-methyl-3-oxo-propyl] 2-chloro-5-[3-chloro-5-(trifluoromethyl)-2-pyridyl]-benzoate]",100,100,100,100,100,70,100,100,100,90,100,100,100,100,100
"CCOC(=O)CC(C)OC(=O)c1cc(-c2ncc(C(F)(F)F)cc2Cl)ccc1Cl (stereo not drawn) [Compound 1-525, (3-ethoxy-1-methyl-3-oxo-propyl) 2-chloro-5-[3-chloro-5-(trifluoromethyl)-2-pyridyl]benzoate]",100,100,100,100,100,70,100,100,100,80,100,100,100,100,100
"CCOC(=O)C[C@@H](C)OC(=O)c1cc(-c2ncc(C(F)(F)F)cc2Cl)c(F)cc1Cl [Compound 2-525 (R-enantiomer), [(1R)-3-ethoxy-1-methyl-3-oxo-propyl] 2-chloro-5-[3-chloro-5-(trifluoromethyl)-2-pyridyl]-4-fluoro-benzoate]",100,100,100,100,100,60,100,100,100,100,100,100,100,100,100
"CCOC(=O)C[C@H](C)OC(=O)c1cc(-c2ncc(C(F)(F)F)cc2Cl)c(F)cc1Cl [Compound 2-525 (S-enantiomer), [(1S)-3-ethoxy-1-methyl-3-oxo-propyl] 2-chloro-5-[3-chloro-5-(trifluoromethyl)-2-pyridyl]-4-fluoro-benzoate]",100,100,100,100,100,100,100,100,100,100,100,100,100,100,100
"COC(=O)C[C@H](C)OC(=O)c1nc(-c2ncc(C(F)(F)F)cc2Cl)c(F)cc1Cl [Compound 11-524 (S-enantiomer), [(1S)-3-methoxy-1-methyl-3-oxo-propyl] 3-chloro-6-[3-chloro-5-(trifluoromethyl)-2-pyridyl]-5-fluoro-pyridine-2-carboxylate]",100,100,100,100,100,100,100,100,100,100,100,100,100,100,100

# Reference: patent US20250212879A1, “HERBICIDAL COMPOUNDS” (SYNGENTA CROP PROTECTION AG, priority 2022, published 2025)
